The source made the active and inactive calls. No cut-off for these calls is given here.
How the values were obtained:
MCF7 = experiment: Antiproliferative activity against human MCF7 cells after 72 hrs by MTT assay; assay type: functional, cell-based; conditions: MCF7, 72 h
SW-620 = experiment: Antiproliferative activity against human SW620 cells after 72 hrs by MTT assay; assay type: functional, cell-based; conditions: SW-620, 72 h
HepG2 = experiment: Antiproliferative activity against human HepG2 cells after 72 hrs by MTT assay; assay type: functional, cell-based; conditions: HepG2, 72 h
HeLa = experiment: Antiproliferative activity against human HeLa cells after 72 hrs by MTT assay; assay type: functional, cell-based
BJ = experiment: Antiproliferative activity against human BJ cells after 72 hrs by MTT assay; assay type: cell-based
Calf thymus DNA [1] = experiment: Binding affinity to calf thymus DNA assessed as change in melting temperature at drug/DNA ratio of 0.25 by spectrophotmetric method; assay type: nucleic-acid assay; conditions: Bos taurus
Calf thymus DNA [2] = experiment: Binding affinity to calf thymus DNA assessed as change in melting temperature at drug/DNA ratio of 0.5 by spectrophotmetric method; assay type: nucleic-acid assay; conditions: Bos taurus
Calf thymus DNA [3] = experiment: Binding affinity to calf thymus DNA assessed as change in melting temperature at drug/DNA ratio of 1 by spectrophotmetric method; assay type: nucleic-acid assay; conditions: Bos taurus
Calf thymus DNA [4] = experiment: Binding affinity to calf thymus DNA at 1 to 25 uM by circular dichroism spectral analysis; assay type: nucleic-acid assay; conditions: Bos taurus
[5] = target: T1, DNA topoisomerase 1 (Homo sapiens) (UniProt P11387); experiment: Inhibition of human topoisomerase1-mediated DNA relaxation assessed as DNA intercalation at 5 to 50 uM using supercoiled pUC19 as substrate pretreated with substrate for 45 mins followed by enzyme addition measured by agarose gel electrophoresis
T1 sequence (whole entry): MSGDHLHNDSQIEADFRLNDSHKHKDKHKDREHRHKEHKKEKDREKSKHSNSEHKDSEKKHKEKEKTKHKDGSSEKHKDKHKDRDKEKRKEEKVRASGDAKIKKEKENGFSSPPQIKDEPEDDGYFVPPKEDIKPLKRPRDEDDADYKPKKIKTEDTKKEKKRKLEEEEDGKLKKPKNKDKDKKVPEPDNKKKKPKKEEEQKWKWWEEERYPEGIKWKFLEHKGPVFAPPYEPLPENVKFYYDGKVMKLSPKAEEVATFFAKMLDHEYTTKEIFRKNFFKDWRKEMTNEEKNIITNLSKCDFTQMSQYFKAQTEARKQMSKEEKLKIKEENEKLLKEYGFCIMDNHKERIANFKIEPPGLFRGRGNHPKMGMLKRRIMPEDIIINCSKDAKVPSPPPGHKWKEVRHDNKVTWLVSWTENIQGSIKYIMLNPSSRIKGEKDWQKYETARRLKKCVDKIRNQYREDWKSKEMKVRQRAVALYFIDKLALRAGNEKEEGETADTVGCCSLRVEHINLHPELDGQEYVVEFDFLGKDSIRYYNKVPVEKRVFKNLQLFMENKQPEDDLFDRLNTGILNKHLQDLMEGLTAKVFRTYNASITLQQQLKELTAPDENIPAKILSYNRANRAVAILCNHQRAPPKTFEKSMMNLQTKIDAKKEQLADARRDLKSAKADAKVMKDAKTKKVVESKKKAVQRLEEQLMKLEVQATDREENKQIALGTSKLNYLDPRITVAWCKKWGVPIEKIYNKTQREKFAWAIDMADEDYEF

[6] = target: T1, DNA topoisomerase 1 (Homo sapiens); experiment: Poison activity at human topoisomerase1 assessed as accumulation of nicked DNA at 5 to 50 uM using supercoiled pUC19 as substrate pretreated with substrate for 45 mins followed by enzyme addition measured by agarose gel electrophoresis
[7] = target: T1, DNA topoisomerase 1 (Homo sapiens); experiment: Poison activity at human topoisomerase1 assessed as accumulation of nicked DNA at 50 uM using supercoiled pUC19 as substrate pretreated with substrate for 45 mins followed by enzyme addition measured by agarose gel electrophoresis relative to control
[8] = Drug uptake in human Caki2 cells at 50 uM measured after 5 hrs by Phalloidin CruzFluorTM 488 conjugate/propidium iodide staining based fluorescence microscopic analysis; assay type: ADME, cell-based; conditions: caki-2, 5 h
[9] = Drug uptake in nucleus of human Caki2 cells at 50 uM measured after 5 hrs by Phalloidin CruzFluorTM 488 conjugate/propidium iodide staining based fluorescence microscopic analysis; assay type: ADME, subcellular; conditions: caki-2, 5 h
[10] = Drug uptake in cytoplasm of human Caki2 cells at 50 uM measured after 5 hrs by Phalloidin CruzFluorTM 488 conjugate/propidium iodide staining based fluorescence microscopic analysis; assay type: ADME, subcellular; conditions: caki-2, 5 h
CAKI-2 = experiment: Cytotoxicity against human Caki2 cells after 72 hrs by MTT assay; assay type: functional, cell-based; conditions: CAKI-2, 72 h
[11] = target: T1, DNA topoisomerase 1 (Homo sapiens); experiment: Poison activity at human topoisomerase1 assessed as accumulation of nicked DNA at 10 uM using supercoiled pUC19 as substrate pretreated with substrate for 45 mins followed by enzyme addition measured by agarose gel electrophoresis relative to control
[12] = target: T1, DNA topoisomerase 1 (Homo sapiens); experiment: Poison activity at human topoisomerase1 assessed as accumulation of nicked DNA at 20 uM using supercoiled pUC19 as substrate pretreated with substrate for 45 mins followed by enzyme addition measured by agarose gel electrophoresis relative to control

Compound | IC50 (MCF7) | IC50 (SW-620) | IC50 (HepG2) | IC50 (HeLa) | IC50 (BJ) | ΔTm (Calf thymus DNA [1]) | ΔTm (Calf thymus DNA [2]) | ΔTm (Calf thymus DNA [3]) | Activity (Calf thymus DNA [4]) | inhibition (qualitative) [5] | Activity [6] | fold change (FC) [7] | Drug uptake [8] | Drug uptake [9] | Drug uptake [10] | IC50 (CAKI-2) | fold change (FC) [11] | fold change (FC) [12]
c1ccc2c(c1)CN(c1nc3ccccc3[nH]1)/C2=N/c1nc2ccccc2[nH]1 | 7.47 µM | > 100 µM | 7.85 µM | 9.32 µM | 22.4 µM | -0.6 °C | -0.7 °C | -0.5 °C | – | – | – | – | – | – | – | – | – | –
N#Cc1ccc2nc(N3Cc4ccccc4C3=O)sc2c1 | 9.93 µM | > 100 µM | 61.5 µM | 54.7 µM | 44.5 µM | – | – | – | – | – | – | – | – | – | – | – | – | –
N#Cc1ccc2nc(N3Cc4ccccc4C3=O)[nH]c2c1 | 5.06 µM | > 100 µM | 10 µM | 24.1 µM | 15.8 µM | – | – | – | – | – | – | – | – | – | – | – | – | –
CC(C)NC(=N)c1ccc2nc(/N=C3\c4ccccc4CN3c3nc4ccc(C(=N)NC(C)C)cc4[nH]3)[nH]c2c1.Cl.Cl | 66.1 µM | > 100 µM | 84.8 µM | 96.8 µM | > 100 µM | 7 °C | 12.9 °C | – | Active | Active | Active | 2.2 | Active | Active | Active | > 100 µM | – | –
CC(C)NC(=N)c1ccc2nc(N3Cc4ccccc4C3=O)[nH]c2c1 | 0.93 µM | 71 µM | > 100 µM | 84.3 µM | 5.72 µM | – | – | – | – | – | – | – | – | – | – | – | – | –
CC[C@@]1(O)C(=O)OCc2c1cc1n(c2=O)Cc2cc3ccccc3nc2-1 | – | – | – | – | – | – | – | – | – | – | Active | 2.5 to 3.2 | – | – | – | – | 2 | 2.3 to 2.9
CC(C)NC(=N)c1ccc2nc(/N=C3\c4ccccc4CN3c3nc4ccc(C(=N)NC(C)C)cc4s3)sc2c1.Cl.Cl | 90.1 µM | 49.5 µM | 68.8 µM | 52.9 µM | 4.72 µM | 12.7 °C | 18 °C | – | – | Active | – | – | Active | Active | Active | 40 µM | – | –
